Source: the NIST ThermoML archive (doi:10.1016/j.jct.2015.03.001)

How the values were obtained:
[1] = refractive index (Na D-line) (dimensionless); xn = mol fraction of the nth substance listed; conditions: 99 kPa, Liquid, Abbe refractometer
[2] = relative permittivity at various frequencies (dimensionless); xn = mol fraction of the nth substance listed; conditions: 99 kPa, Liquid, Frequency=2 MHz, Parallel plate capacitor

CCCCCl [1-chlorobutane] + CCCCCC
Conditions	refractive index, 283.15 K	refractive index, 298.15 K	refractive index, 313.15 K	relative permittivity, 283.15 K	relative permittivity, 298.15 K	relative permittivity, 313.15 K
[1], x2 = 0	1.4075	1.3995	1.39131	–	–	–
[1], x2 = 0.0534	1.40565	1.39762	1.38941	–	–	–
[1], x2 = 0.1022	1.404	1.39595	1.38772	–	–	–
[1], x2 = 0.2056	1.40063	1.39253	1.38428	–	–	–
[1], x2 = 0.3039	1.39755	1.38941	1.38115	–	–	–
[1], x2 = 0.3985	1.39477	1.38661	1.37832	–	–	–
[1], x2 = 0.5023	1.39187	1.38367	1.37537	–	–	–
[1], x2 = 0.6042	1.38921	1.38099	1.37267	–	–	–
[1], x2 = 0.7026	1.38679	1.37855	1.37024	–	–	–
[1], x2 = 0.8041	1.38445	1.37621	1.36788	–	–	–
[1], x2 = 0.9082	1.38227	1.37401	1.3657	–	–	–
[1], x2 = 0.9471	1.3815	1.37324	1.36493	–	–	–
[2], x2 = 0	–	–	–	7.552	7.157	6.757
[2], x2 = 0.0476	–	–	–	7.176	6.821	6.456
[2], x2 = 0.0989	–	–	–	6.775	6.461	6.13
[2], x2 = 0.1968	–	–	–	6.057	5.8	5.526
[2], x2 = 0.3016	–	–	–	5.335	5.13	4.901
[2], x2 = 0.3968	–	–	–	4.722	4.553	4.37
[2], x2 = 0.5024	–	–	–	4.101	3.968	3.824
[2], x2 = 0.6034	–	–	–	3.567	3.458	3.348
[2], x2 = 0.6982	–	–	–	3.11	3.027	2.94
[2], x2 = 0.808	–	–	–	2.63	2.567	2.506
[2], x2 = 0.9029	–	–	–	2.259	2.217	2.176
[2], x2 = 0.9447	–	–	–	2.103	2.07	2.04
